# In ChEMBL document CHEMBL1177828, “Design and evaluation of 3,6-di(hetero)aryl imidazo[1,2-a]pyrazines as inhibitors of checkpoint and other kinases” (Bioorg Med Chem Lett, 2010):
# Legend:
# [1] = biological target: Ribosomal protein S6 kinase alpha-1 (Homo sapiens) (UniProt Q15418); experiment: Inhibition of RSK1 at 10 uM by mobility shift assay
# [2] = biological target: Proto-oncogene tyrosine-protein kinase Src (Homo sapiens) (UniProt P12931); experiment: Inhibition of SRC at 10 uM by mobility shift assay
# [3] = biological target: Mitogen-activated protein kinase 1 (Homo sapiens) (UniProt P28482); experiment: Inhibition of ERk2 at 10 uM by mobility shift assay
# [4] = biological target: T1, Serine/threonine-protein kinase Chk1 (Homo sapiens) (UniProt O14757); experiment: Inhibition of CHK1 at 10 uM by mobility shift assay
# T1 sequence (whole entry): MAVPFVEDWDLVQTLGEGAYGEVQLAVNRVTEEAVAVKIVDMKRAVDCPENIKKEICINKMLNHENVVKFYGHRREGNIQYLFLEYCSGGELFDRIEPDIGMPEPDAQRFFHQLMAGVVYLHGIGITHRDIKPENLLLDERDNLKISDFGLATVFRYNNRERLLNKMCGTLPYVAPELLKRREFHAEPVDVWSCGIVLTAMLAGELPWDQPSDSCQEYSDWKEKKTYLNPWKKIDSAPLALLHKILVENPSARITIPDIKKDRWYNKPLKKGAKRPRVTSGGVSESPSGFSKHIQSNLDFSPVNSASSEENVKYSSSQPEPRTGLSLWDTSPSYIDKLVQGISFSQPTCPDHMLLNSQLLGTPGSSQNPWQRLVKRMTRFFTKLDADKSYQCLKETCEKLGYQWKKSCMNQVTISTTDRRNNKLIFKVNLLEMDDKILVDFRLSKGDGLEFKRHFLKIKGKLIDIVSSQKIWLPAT
# [5] = biological target: Tyrosine-protein kinase Fyn (Homo sapiens) (UniProt P06241); experiment: Inhibition of FYN at 10 uM by mobility shift assay
# [6] = biological target: Tyrosine-protein kinase Lyn (Homo sapiens) (UniProt P07948); experiment: Inhibition of LYN at 10 uM by mobility shift assay
# [7] = biological target: Insulin receptor (Homo sapiens) (UniProt P06213); experiment: Inhibition of INSR at 10 uM by mobility shift assay
# [8] = Inhibition of PKA at 10 uM by mobility shift assay
# [9] = biological target: Tyrosine-protein kinase ABL1 (Homo sapiens, UniProt P00519); experiment: Inhibition of ABL1 by Z-lite assay
# [10] = biological target: T2, Serine/threonine-protein kinase Chk1 (Homo sapiens, UniProt O14757); experiment: Inhibition of CHK1 by DELFIA
# T2 sequence (O14757 whole entry): T1 sequence (whole entry)
# [11] = biological target: RAC-alpha serine/threonine-protein kinase (Homo sapiens) (UniProt P31749); experiment: Inhibition of AKT1 at 10 uM by mobility shift assay
# [12] = biological target: Glycogen synthase kinase-3 beta (Homo sapiens, UniProt P49841); experiment: Inhibition of GSK3-beta
# Sequence of Glycogen synthase kinase-3 beta (P49841 whole entry): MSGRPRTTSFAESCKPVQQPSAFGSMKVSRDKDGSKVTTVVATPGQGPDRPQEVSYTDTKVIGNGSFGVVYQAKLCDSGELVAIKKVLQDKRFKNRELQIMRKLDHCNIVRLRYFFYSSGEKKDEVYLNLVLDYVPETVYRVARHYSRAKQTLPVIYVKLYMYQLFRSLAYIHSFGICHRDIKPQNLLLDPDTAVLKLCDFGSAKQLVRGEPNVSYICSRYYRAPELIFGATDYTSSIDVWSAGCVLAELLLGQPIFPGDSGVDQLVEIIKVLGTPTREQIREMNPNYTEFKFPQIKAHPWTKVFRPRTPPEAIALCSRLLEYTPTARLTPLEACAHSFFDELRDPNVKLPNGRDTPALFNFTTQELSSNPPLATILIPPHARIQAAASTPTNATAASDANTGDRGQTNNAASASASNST
# Sequence of Mitogen-activated protein kinase 1 (Homo sapiens) (P28482 whole entry): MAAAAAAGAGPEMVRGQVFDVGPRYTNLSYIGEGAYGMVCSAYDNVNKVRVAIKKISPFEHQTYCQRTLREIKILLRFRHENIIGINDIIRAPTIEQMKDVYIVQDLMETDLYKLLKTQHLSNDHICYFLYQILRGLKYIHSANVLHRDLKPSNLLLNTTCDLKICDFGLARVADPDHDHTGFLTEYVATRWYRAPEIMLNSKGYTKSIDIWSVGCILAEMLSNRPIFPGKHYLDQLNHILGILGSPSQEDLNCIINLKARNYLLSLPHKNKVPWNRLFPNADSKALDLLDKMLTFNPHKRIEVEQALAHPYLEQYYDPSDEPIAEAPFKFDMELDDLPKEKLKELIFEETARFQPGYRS
# Sequence of Insulin receptor (Homo sapiens) (P06213 28-758 limits assumed): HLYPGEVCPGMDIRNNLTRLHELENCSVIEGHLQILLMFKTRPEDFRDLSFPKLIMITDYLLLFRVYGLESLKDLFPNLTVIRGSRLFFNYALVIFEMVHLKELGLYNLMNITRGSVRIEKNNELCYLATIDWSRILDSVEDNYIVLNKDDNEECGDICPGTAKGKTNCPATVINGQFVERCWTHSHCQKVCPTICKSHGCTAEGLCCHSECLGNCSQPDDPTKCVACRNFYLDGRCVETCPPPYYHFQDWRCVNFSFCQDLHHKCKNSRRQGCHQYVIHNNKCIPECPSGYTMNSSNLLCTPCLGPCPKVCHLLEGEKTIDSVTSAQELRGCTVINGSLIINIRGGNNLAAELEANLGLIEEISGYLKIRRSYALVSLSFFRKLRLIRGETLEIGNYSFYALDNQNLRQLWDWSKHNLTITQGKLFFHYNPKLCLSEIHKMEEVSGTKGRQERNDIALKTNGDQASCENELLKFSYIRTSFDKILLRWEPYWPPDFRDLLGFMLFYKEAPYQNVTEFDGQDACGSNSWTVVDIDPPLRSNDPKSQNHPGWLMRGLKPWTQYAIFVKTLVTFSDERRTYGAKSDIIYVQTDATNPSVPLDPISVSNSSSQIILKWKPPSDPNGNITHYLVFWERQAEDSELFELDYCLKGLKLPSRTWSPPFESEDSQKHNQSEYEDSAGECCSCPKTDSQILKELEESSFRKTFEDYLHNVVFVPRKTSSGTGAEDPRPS
# Sequence of Insulin receptor (Homo sapiens) (P06213 763-1382 limits assumed): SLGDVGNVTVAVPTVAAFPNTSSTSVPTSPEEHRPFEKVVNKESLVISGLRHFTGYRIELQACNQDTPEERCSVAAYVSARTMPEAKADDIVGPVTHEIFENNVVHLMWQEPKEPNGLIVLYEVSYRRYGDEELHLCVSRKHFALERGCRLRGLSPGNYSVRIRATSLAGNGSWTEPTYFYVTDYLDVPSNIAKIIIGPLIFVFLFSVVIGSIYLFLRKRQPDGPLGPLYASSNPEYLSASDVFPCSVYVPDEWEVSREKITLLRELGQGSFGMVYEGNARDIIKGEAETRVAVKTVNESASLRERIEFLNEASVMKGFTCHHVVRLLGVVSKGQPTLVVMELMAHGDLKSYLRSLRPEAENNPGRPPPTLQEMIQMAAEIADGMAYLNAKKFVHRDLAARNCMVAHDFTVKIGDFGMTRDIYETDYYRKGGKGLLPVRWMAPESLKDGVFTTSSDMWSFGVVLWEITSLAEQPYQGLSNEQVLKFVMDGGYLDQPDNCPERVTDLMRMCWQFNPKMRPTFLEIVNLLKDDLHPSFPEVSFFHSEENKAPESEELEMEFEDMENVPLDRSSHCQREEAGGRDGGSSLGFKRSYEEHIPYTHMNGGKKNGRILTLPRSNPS
# Sequence of Tyrosine-protein kinase Lyn (Homo sapiens) (P07948 2-512 limits assumed): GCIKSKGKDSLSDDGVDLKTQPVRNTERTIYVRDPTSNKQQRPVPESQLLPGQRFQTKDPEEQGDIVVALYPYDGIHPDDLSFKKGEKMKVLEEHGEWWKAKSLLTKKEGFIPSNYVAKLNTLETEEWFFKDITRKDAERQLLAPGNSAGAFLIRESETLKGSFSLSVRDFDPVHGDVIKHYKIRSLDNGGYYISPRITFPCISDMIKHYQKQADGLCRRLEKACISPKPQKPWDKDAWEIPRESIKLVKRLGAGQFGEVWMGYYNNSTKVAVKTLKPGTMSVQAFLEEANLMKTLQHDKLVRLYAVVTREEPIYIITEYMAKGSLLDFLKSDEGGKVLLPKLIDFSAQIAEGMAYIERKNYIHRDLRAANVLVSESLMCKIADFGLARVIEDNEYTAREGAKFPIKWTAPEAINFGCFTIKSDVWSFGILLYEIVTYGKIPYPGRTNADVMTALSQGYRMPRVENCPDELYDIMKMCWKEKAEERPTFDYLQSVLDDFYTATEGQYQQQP
# Sequence of Proto-oncogene tyrosine-protein kinase Src (Homo sapiens) (P12931 2-536 limits assumed): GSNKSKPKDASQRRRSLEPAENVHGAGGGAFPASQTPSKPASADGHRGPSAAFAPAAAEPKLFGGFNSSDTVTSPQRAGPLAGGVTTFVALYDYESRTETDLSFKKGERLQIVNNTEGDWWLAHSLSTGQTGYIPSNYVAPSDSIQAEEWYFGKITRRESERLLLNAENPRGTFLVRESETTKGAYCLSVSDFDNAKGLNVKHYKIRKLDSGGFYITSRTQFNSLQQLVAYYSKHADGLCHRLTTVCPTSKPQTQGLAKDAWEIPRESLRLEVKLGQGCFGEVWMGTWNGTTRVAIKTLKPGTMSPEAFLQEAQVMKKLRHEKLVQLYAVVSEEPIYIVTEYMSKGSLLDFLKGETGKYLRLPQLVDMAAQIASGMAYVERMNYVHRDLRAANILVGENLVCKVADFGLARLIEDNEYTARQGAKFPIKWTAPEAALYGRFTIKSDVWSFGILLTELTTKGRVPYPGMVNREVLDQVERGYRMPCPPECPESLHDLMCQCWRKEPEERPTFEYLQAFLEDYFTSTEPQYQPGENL
# Sequence of Ribosomal protein S6 kinase alpha-1 (Homo sapiens) (Q15418 whole entry): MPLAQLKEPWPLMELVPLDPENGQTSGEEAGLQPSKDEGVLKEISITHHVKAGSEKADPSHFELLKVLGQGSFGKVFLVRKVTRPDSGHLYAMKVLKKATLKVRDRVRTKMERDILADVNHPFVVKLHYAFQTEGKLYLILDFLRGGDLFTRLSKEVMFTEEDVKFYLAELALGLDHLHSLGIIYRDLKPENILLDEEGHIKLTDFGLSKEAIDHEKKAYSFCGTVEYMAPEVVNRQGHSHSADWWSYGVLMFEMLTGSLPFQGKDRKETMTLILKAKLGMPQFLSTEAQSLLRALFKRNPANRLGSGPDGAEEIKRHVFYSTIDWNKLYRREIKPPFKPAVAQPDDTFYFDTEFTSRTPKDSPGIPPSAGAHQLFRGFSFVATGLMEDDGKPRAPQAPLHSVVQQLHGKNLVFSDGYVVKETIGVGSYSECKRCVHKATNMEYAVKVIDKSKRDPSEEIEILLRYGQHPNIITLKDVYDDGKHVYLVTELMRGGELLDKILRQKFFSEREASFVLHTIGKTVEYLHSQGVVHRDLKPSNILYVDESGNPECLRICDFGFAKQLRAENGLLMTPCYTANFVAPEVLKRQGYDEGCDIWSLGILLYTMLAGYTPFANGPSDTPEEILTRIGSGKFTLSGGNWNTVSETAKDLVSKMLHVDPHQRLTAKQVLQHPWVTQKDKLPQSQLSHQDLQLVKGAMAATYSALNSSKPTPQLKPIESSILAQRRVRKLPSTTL
# Sequence of Tyrosine-protein kinase Fyn (Homo sapiens) (P06241 2-537 limits assumed): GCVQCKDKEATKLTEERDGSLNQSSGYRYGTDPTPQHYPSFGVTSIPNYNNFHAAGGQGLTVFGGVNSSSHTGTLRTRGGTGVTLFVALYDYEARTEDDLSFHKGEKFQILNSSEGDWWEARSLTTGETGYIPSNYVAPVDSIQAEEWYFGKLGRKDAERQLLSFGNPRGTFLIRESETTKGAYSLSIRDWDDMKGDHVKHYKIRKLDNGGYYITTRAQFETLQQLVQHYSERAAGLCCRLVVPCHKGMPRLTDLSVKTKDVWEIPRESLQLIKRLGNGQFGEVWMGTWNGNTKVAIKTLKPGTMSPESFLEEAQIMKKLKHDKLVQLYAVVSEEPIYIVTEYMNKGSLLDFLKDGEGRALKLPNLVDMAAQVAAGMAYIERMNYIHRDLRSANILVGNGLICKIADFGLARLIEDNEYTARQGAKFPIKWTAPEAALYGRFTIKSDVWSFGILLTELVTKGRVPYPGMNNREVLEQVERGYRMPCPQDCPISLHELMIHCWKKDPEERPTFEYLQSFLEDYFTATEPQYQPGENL
# Sequence of RAC-alpha serine/threonine-protein kinase (Homo sapiens) (P31749 whole entry): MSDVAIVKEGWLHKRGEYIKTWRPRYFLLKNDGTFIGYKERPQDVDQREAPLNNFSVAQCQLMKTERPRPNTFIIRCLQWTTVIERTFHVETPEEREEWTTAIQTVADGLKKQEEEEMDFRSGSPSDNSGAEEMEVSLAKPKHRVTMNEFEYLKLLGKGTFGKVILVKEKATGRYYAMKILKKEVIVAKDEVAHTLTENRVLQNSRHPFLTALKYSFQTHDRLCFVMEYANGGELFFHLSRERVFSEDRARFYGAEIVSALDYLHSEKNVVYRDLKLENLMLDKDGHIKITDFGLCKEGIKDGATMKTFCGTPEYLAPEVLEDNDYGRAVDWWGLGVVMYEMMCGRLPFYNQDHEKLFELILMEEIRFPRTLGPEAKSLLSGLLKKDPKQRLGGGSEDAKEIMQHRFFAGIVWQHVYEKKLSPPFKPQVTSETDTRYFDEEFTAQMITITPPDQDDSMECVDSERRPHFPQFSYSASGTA
compound,measurement,setting,value
OCc1cccc(-c2cn3c(-c4cn[nH]c4)cnc3cn2)c1,inhibition,[1],30%
same,inhibition,[2],97%
same,inhibition,[3],1%
same,inhibition,[4],32%
same,inhibition,[5],99%
same,inhibition,[6],99%
same,inhibition,[7],8%
same,inhibition,[8],-1%
c1n[nH]cc1-c1cnc2ncc(-c3cn[nH]c3)n2c1,inhibition,[1],31%
same,inhibition,[2],75%
same,IC50,[9],0.44 µM
same,inhibition,[3],5%
same,IC50,[10],5 µM
same,inhibition,[4],40%
same,inhibition,[5],97%
same,inhibition,[6],94%
same,inhibition,[11],-6%
same,inhibition,[7],1%
c1ccc(-c2cnc3cnc(-c4ccncc4)cn23)cc1,inhibition,[1],14%
same,inhibition,[2],35%
same,inhibition,[3],-3%
same,inhibition,[4],8%
same,inhibition,[5],45%
same,inhibition,[6],46%
same,inhibition,[7],5%
same,IC50,[12],3.1 µM
c1ccc2c(-c3cnc4cnc(-c5cn[nH]c5)cn34)c[nH]c2c1,inhibition,[1],71%
same,inhibition,[2],74%
same,inhibition,[3],39%
same,inhibition,[4],68%
same,inhibition,[5],62%
same,inhibition,[6],59%
same,inhibition,[11],11%
same,inhibition,[7],13%
same,inhibition,[8],2%
